Laboratory results published in US11286236B2, “Compound, agent and composition for the suppression of cancer growth” (Vector Vitale IP LLC, priority 2018, dated 2022).

Experiments:
[1] = tested on: Mouse B16 melanoma cells (MM-4 cell line); assay: Cytotoxic/cytostatic activity of E2+85Rbe and antitumor drug added simultaneously; format: cell-based
Description: The effects of the complex action of various doses of the investigated substances were evaluated using the concept of synergistic, additive and antagonistic effects of the drugs. The mathematics are detailed below. […] The effects were calculated using the Chou-Talalay method according to the following equation (“CI” refers to the “combination index”) (see T.-C. […] Where both the ^85Rb-enriched rubidium salt (referred to as “E2+^85Rbe”) and an AD were administered, they were administered simultaneously.

[2] = tested on: Ehrlich ascites carcinoma; assay: In vivo antitumor activity against Ehrlich ascites carcinoma; design: species or system mouse; conditions: for Number of animals in the group with tumor / Number of animals in the group without tumor: 14 mice per group
Description: Outbred mice were administered Ehrlich ascites carcinoma cells (EAC) intraperitoneally (IP) at a dose of 2.5×10^5 cells in 0.25 ml of normal saline solution. The compounds under study, 1)^85RbeE2, was dissolved in deuterium-depleted water and 2) Cisplatin (Teva, the Netherlands), was dissolved in normal saline solution. The drugs were administered starting from the first day after mice were inoculated with tumor cells, using a microinjection syringe, at the following doses: 1)^85Rbe-E2 at a dose of 750 μg/mouse (weighing 20 g) in a volume of 0.3 ml as 3 IP injections (1 injection—250 μg/mouse) on the 1st, 4th and 7th day of the experiment; 2) Cisplatin at a dose of 4.5 mg/kg or 1.5 mg/kg as 3 IP injections on the 2nd, 5th and 8th day of the experiment. The dynamics of tumor growth in the experimental animals was observed (based on the volume of ascites in the peritoneal cavity) after the tumor cell inoculation and for 31 days of the experiment. On the 15th and 22nd day after IP administration of tumor cells, all the fluid accumulated in each animal's abdomen was extracted and the total number of live/dead cells in each mouse was determined. In addition, some mice were used to assess a survival rate of animals in the experiment.
Laboratory animals. 84 outbred female 10 to 12-week old mice weighing 22-26 g were used in the experimental study. The animals were obtained from the animal vivarium at R.E. Kavetsky IEPOR NASU. […] The animals were maintained in plastic cages, under natural light-dark cycles, fed standard food and allowed free access to food and tap water.
Tumor model. Ascites strain of Ehrlich ascites carcinoma maintained on outbred mice obtained from the cell and tissue line bank at R.E. Kavetsky IEPOR NASU was used in the experiment. To prepare the strain for injection, tumor cells derived from ascitic fluid were placed in normal saline solution and cellularity of the suspension was assessed in a hemocytometer and adjusted to a concentration of 1·10^6 cells/ml with saline solution. The tumor cells were inoculated by injecting 250 mcl of cell suspension from the tumor (0.25×10^6 cells/mouse) into the peritoneal cavity of laboratory animals.
The drugs were administered IP every other day, using a microinjection syringe, at doses specified above as a series of 3 injections of each compound according to the following scheme: ^85Rbe-E2 at a dose of 250 μg/mouse weighing 20 g+CP at a dose of […] 24 hours later (for groups (EAC+CP(4.5)) and (EAC+^85Rbe-E2+CP(4.5)) or […] (for groups (EAC+CP(1.5)) and (EAC+^85Rbe-E2+CP(1.5)) in a volume of 0.25 ml of saline solution (6 injections in total during 8 days).
The tumor growth dynamics in the laboratory animals was observed by daily control of the volume of ascitic fluid in the abdominal cavity of mice starting from the tumor inoculation and for 31 days of the experiment. The dynamics of ascites growth both in control and experimental groups was assessed visually using a 10-point scale, where 0 points were the absence of tumor growth and 10 points were the maximum increase in the size of the abdomen of the mouse with ascites (one point was 0.6 cm of the mean diameter of the mouse abdomen filled with the fluid).
Furthermore, on the 15th and 22nd day after intraperitoneal injection of tumor cells, all ascitic fluid was removed from the abdomen in 2 or 3 animals from each group by washing their peritoneal cavity with saline solution, and live/dead EAC cells were counted in each mouse using the traditional vital dye trypan blue (HyClon, USA) and a hemocytometer.
X=((a)/80)×10^6, where X is the number of cells in 1 ml and a is the number of cells counted in 5 large diagonal squares of the hemocytometer.
7 or 8 mice from each group were used to assess their survival in the experiment. The total lifespan observation time was 31 days from the moment of inoculation of tumor cells.
Statistical data processing. […]

[3] = CP 1.5 mg/kg IP total (combination: + 85Rbe-E2 750 μg/mouse)
[4] = CP 4.5 mg/kg IP total (combination: + 85Rbe-E2 750 μg/mouse)
[5] = Day 15, CP 1.5 mg/kg IP total (combination: + 85Rbe-E2 750 μg/mouse)
[6] = Day 15, CP 4.5 mg/kg IP total (combination: + 85Rbe-E2 750 μg/mouse)
[7] = Day 22, CP 1.5 mg/kg IP total (combination: + 85Rbe-E2 750 μg/mouse)
[8] = Day 22, CP 4.5 mg/kg IP total (combination: + 85Rbe-E2 750 μg/mouse)

N.N.[Cl][Pt][Cl] [cisplatin]
% surviving MM-4 cells ([1]; cisplatinum 0.5 μg/ml alone): 84 ± 3.3%
% surviving MM-4 cells ([1]; cisplatinum 1 μg/ml alone): 51.7 ± 6.9%
% surviving MM-4 cells ([1]; cisplatinum 2.5 μg/ml alone): 24.6 ± 5.2%
% surviving MM-4 cells ([1]; cisplatinum 5 μg/ml alone): 13.8 ± 1.2%
% surviving MM-4 cells ([1]; cisplatinum 10 μg/ml alone): 2.6 ± 1.4%
Animals without tumor, % [2, 3]: 0%
Number of animals in the group with tumor [2, 3]: 14
Number of animals in the group without tumor [2, 3]: 0
Animals without tumor, % [2, 4]: 0%
Number of animals in the group with tumor [2, 4]: 14
Number of animals in the group without tumor [2, 4]: 0
Number of dead cells/mouse, % [2, 5]: 9.5 ± 2.8%
Number of live cells/mouse, ×10^6 (M ± m) [2, 5]: 1188 ± 116 ×10^6
Volume of ascites [2, 5]: 5.2 ± 1.3 mL
Number of dead cells/mouse, % [2, 6]: <1%
Number of live cells/mouse, ×10^6 (M ± m) [2, 6]: 33.5 ± 11 ×10^6
Volume of ascites [2, 6]: 0.4 ± 0.1 mL
Number of dead cells/mouse, % [2, 7]: 11 ± 1%
Number of live cells/mouse, ×10^6 (M ± m) [2, 7]: 1154 ± 429 ×10^6
Volume of ascites [2, 7]: 14.4 ± 8.7 mL
Number of dead cells/mouse, % [2, 8]: <3%
Number of live cells/mouse, ×10^6 (M ± m) [2, 8]: 430 ± 250 ×10^6
Volume of ascites [2, 8]: 2.8 ± 1.3 mL
Last day with statistically significant inhibition of EAC growth vs control ([2]; cisplatin 1.5 mg/kg (combination: + 85Rbe-E2)): 9 days
Suppression of tumor growth vs control ([2]; cisplatin 1.5 mg/kg mono-regime, only up to the 10th day): 32%
Suppression of tumor growth / decrease in tumor size vs control, average ([2]; cisplatin 4.5 mg/kg (combination: + 85Rbe-E2 total 750 mg/mouse as printed), throughout the observation period): 51.3%
Survival, percent of mice ([2]; day 0, CP 1.5 mg/kg IP total (combination: + 85Rbe-E2 750 μg/mouse)): 100%
Survival, percent of mice ([2]; day 0, CP 4.5 mg/kg IP total (combination: + 85Rbe-E2 750 μg/mouse)): 100%
Size of mouse abdomen, points ([2]; day 9, CP 1.5 mg/kg IP total (combination: + 85Rbe-E2 750 μg/mouse IP total)): 3.8 ± 0.8 points
Size of mouse abdomen, points ([2]; day 9, CP 4.5 mg/kg IP total (combination: + 85Rbe-E2 750 μg/mouse IP total)): 2.6 ± 0.2 points
Size of mouse abdomen, points ([2]; day 13, CP 1.5 mg/kg IP total (combination: + 85Rbe-E2 750 μg/mouse IP total)): 5.9 ± 1.1 points
Size of mouse abdomen, points ([2]; day 13, CP 4.5 mg/kg IP total (combination: + 85Rbe-E2 750 μg/mouse IP total)): 3.2 ± 0.3 points
Size of mouse abdomen, points ([2]; day 15, CP 1.5 mg/kg IP total (combination: + 85Rbe-E2 750 μg/mouse IP total)): 6.9 ± 0.4 points
Survival, percent of mice ([2]; day 15, CP 1.5 mg/kg IP total (combination: + 85Rbe-E2 750 μg/mouse)): 100%
Number of live cells in ascites as fraction of the control ([2]; day 15, CP 4.5 mg/kg (combination: + 85Rbe-E2), p<0.05): approximately 1/53
Size of mouse abdomen, points ([2]; day 15, CP 4.5 mg/kg IP total (combination: + 85Rbe-E2 750 μg/mouse IP total)): 3.1 ± 0.4 points
Survival, percent of mice ([2]; day 15, CP 4.5 mg/kg IP total (combination: + 85Rbe-E2 750 μg/mouse)): 100%
Number of live cells in ascites, times smaller than in the control ([2]; day 15, EAC+CP(4.5) group, p<0.05): 52 times
Size of mouse abdomen, points ([2]; day 17, CP 1.5 mg/kg IP total (combination: + 85Rbe-E2 750 μg/mouse IP total)): 7.4 ± 0.6 points
Survival, percent of mice ([2]; day 17, CP 1.5 mg/kg IP total (combination: + 85Rbe-E2 750 μg/mouse)): 100%
Size of mouse abdomen, points ([2]; day 17, CP 4.5 mg/kg IP total (combination: + 85Rbe-E2 750 μg/mouse IP total)): 3.4 ± 0.4 points
Survival, percent of mice ([2]; day 17, CP 4.5 mg/kg IP total (combination: + 85Rbe-E2 750 μg/mouse)): 87.5%
Survival, percent of mice ([2]; day 19, CP 1.5 mg/kg IP total (combination: + 85Rbe-E2 750 μg/mouse)): 100%
Survival, percent of mice ([2]; day 19, CP 4.5 mg/kg IP total (combination: + 85Rbe-E2 750 μg/mouse)): 87.5%
Size of mouse abdomen, points ([2]; day 20, CP 1.5 mg/kg IP total (combination: + 85Rbe-E2 750 μg/mouse IP total)): 8.1 ± 0.6 points
Size of mouse abdomen, points ([2]; day 20, CP 4.5 mg/kg IP total (combination: + 85Rbe-E2 750 μg/mouse IP total)): 4.8 ± 0.5 points
Size of mouse abdomen, points ([2]; day 22, CP 1.5 mg/kg IP total (combination: + 85Rbe-E2 750 μg/mouse IP total)): 8.2 ± 0.8 points
Survival, percent of mice ([2]; day 22, CP 1.5 mg/kg IP total (combination: + 85Rbe-E2 750 μg/mouse)): 100%
Size of mouse abdomen, points ([2]; day 22, CP 4.5 mg/kg IP total (combination: + 85Rbe-E2 750 μg/mouse IP total)): 4.7 ± 0.7 points
Survival, percent of mice ([2]; day 22, CP 4.5 mg/kg IP total (combination: + 85Rbe-E2 750 μg/mouse)): 75%
Size of mouse abdomen, points ([2]; day 24, CP 1.5 mg/kg IP total (combination: + 85Rbe-E2 750 μg/mouse IP total)): 8.6 ± 0.8 points
Survival, percent of mice ([2]; day 24, CP 1.5 mg/kg IP total (combination: + 85Rbe-E2 750 μg/mouse)): 100%
Size of mouse abdomen, points ([2]; day 24, CP 4.5 mg/kg IP total (combination: + 85Rbe-E2 750 μg/mouse IP total)): 5.2 ± 0.9 points
Survival, percent of mice ([2]; day 24, CP 4.5 mg/kg IP total (combination: + 85Rbe-E2 750 μg/mouse)): 75%
Survival, percent of mice ([2]; day 25, CP 1.5 mg/kg IP total (combination: + 85Rbe-E2 750 μg/mouse)): 100%
Survival, percent of mice ([2]; day 25, CP 4.5 mg/kg IP total (combination: + 85Rbe-E2 750 μg/mouse)): 75%
Survival, percent of mice ([2]; day 26, CP 1.5 mg/kg IP total (combination: + 85Rbe-E2 750 μg/mouse)): 100%
Survival, percent of mice ([2]; day 26, CP 4.5 mg/kg IP total (combination: + 85Rbe-E2 750 μg/mouse)): 75%
Size of mouse abdomen, points ([2]; day 27, CP 1.5 mg/kg IP total (combination: + 85Rbe-E2 750 μg/mouse IP total)): 8.4 ± 1 points
Survival, percent of mice ([2]; day 27, CP 1.5 mg/kg IP total (combination: + 85Rbe-E2 750 μg/mouse)): 87.5%
Size of mouse abdomen, points ([2]; day 27, CP 4.5 mg/kg IP total (combination: + 85Rbe-E2 750 μg/mouse IP total), listed as CP): 5.2±0.9 points
Survival, percent of mice ([2]; day 27, CP 4.5 mg/kg IP total (combination: + 85Rbe-E2 750 μg/mouse)): 75%
Survival, percent of mice ([2]; day 28, CP 1.5 mg/kg IP total (combination: + 85Rbe-E2 750 μg/mouse)): 75%
Survival, percent of mice ([2]; day 28, CP 4.5 mg/kg IP total (combination: + 85Rbe-E2 750 μg/mouse)): 75%
Size of mouse abdomen, points ([2]; day 29, CP 1.5 mg/kg IP total (combination: + 85Rbe-E2 750 μg/mouse IP total)): 8.4 ± 1 points
Survival, percent of mice ([2]; day 29, CP 1.5 mg/kg IP total (combination: + 85Rbe-E2 750 μg/mouse), listed as CP): 50%
Size of mouse abdomen, points ([2]; day 29, CP 4.5 mg/kg IP total (combination: + 85Rbe-E2 750 μg/mouse IP total)): 5.4 ± 0.9 points
Survival, percent of mice ([2]; day 29, CP 4.5 mg/kg IP total (combination: + 85Rbe-E2 750 μg/mouse), listed as CP): 75%
Size of mouse abdomen, points ([2]; day 31, CP 1.5 mg/kg IP total (combination: + 85Rbe-E2 750 μg/mouse IP total)): 7.9 ± 1.4 points
Survival, percent of mice ([2]; day 31, CP 1.5 mg/kg IP total (combination: + 85Rbe-E2 750 μg/mouse), listed as CP): 37.5%
Size of mouse abdomen, points ([2]; day 31, CP 4.5 mg/kg IP total (combination: + 85Rbe-E2 750 μg/mouse IP total)): 6 ± 1.3 points
Survival, percent of mice ([2]; day 31, CP 4.5 mg/kg IP total (combination: + 85Rbe-E2 750 μg/mouse), listed as CP): 62.5%
